# Measured values published in patent publication US4675427A, “Tetraphosphine-coordinated gold(I) complexes” (Smith Kline Beckman Corporation, priority 1985, dated 1987).
# “And” between values parts separate entries of the source, which are not always exact repeats. Equal entries are not always repeated.
# Assays:
# [1] = system: P388 lymphocytic leukemia; assay: in vivo ip P388 leukemia mouse model
# From the text: P388 lymphocytic leukemia is currently the most widely used animal tumor model for screening for antitumor agents and for detailed evaluation of active compounds. This tumor system is widely accepted as an antitumor agent screening tool because it is sensitive to virtually all of the clinically active antineoplastic agents; quantitative and reproducible; amenable for large-scale screening; and predictive for activity in other animal tumor models.
# 10^6 P388 leukemia cells are inoculated ip in B6D2F1 mice. Twenty-four hours later, if the tumor inoculum proves to be free of bacterial contamination (as determined by 24 hours incubation in thioglycollate broth), animals are randomized into groups of 6 and housed in shoebox cages. The compound to be evaluated is dissolved in a minimal volume of N,N-dimethylacetamide (DMA). An equal volume of saline is added; if the drug comes out of solution an equal volume of polyethoxylated castor oil is added and then saline qs to a concentration such that the desired dose is delivered in 0.5 ml. The final concentration of DMA and polyethoxylated castor oil is 10 percent. Dilutions for lower doses are made with saline so there is a decreasing proportion of organic solvents in the vehicle with decreasing dosage. This vehicle provides a soluble formulation. […] Animals are monitored daily for mortality and experiments are terminated after 45 days. […]
# B16 melanoma = assay: in vivo ip B16 melanoma assay; set-up: species or system mouse
# Experimental: In this system, groups of eight B6D2F1 mice are inoculated ip with 0.5 ml of a 10% (w:v) brei of […] prepared from pooled sc tumors excised at 14-21 days from […] donor mice. Daily treatment is begun 24 hours after tumor implantation and is continued daily for ten (10) days. The route of drug administration is ip. The mice are monitored daily for survival for sixty (60) days. Antitumor activity is assessed by prolongation of median survival time. An ILS of ≥25% indicates activity in this tumor model.
# [2] = system: M5076 reticulum cell sarcoma; assay: ip implanted M5076 reticulum cell sarcoma tumor model in mice; type: in vivo, mouse
# Experimental: Another chemosensitive tumor model is intraperitoneally (ip) implanted M5076 reticulum cell sarocma in mice. In this system B6D2F female mice are inoculated with 0.5 ml of a 10 percent (w:v) brei of M5076 prepared from pooled subcutaneous (sc) tumors excised at about 21 days from C57B1/6 donors. Drugs are administered ip. Daily treatment is begun 24 hours after implantation and is continued for ten days. The treatment regimen for M5076 is more prolonged than for P388 because of the slower growth rate and longer control survival time of the M5076 tumor. A drug is considered active in this tumor model if it produces ≥25% ILS.
# [3] = disclosed by Struck et al. (1966); cited from earlier work
compound,measurement,setting,value
"[Cl][Au].c1ccc(P(CCP(CCP(c2ccccc2)c2ccccc2)c2ccccc2)CCP(c2ccccc2)c2ccccc2)cc1 (stereo not shown) [Compound 1, Chloro[1,1,4,7,10,10-hexaphenyl-1,4,7,10-tetraphosphodecane-P^1, P^4, P^7, P^10] gold(I)]",MTD (maximally tolerated dose),"[1]; B62DF female mice, ip qDX5 regimen",3 mg/kg
same,"ILS (max), maximum increase in lifespan","[1]; mice bearing ip P388 leukemia, ip Days 1 through 5, figures separated by slashes are from separate experiments",40% and 65%
same,MTD (maximally tolerated dose),"B16 melanoma; B6D2F1 mice, ip qD × 10 regimen",2 mg/kg
same,"ILS, maximum increase in lifespan","B16 melanoma; mice bearing ip B16 melanoma, ip daily for ten days",37%
same,MTD (maximally tolerated dose),"[2]; B6D2F female mice, ip qD × 10 regimen",2 mg/kg
same,"ILS (MAX), maximum increase in lifespan","[2]; mice bearing ip M5076 reticulum cell sarcoma, ip daily for ten days",38%
"c1ccc(P(CCP(c2ccccc2)c2ccccc2)c2ccccc2)cc1 [1,2-bis(diphenylphosphino)ethane]",cytotoxic activity,[3],cytotoxic activity
